Measured values published in ChEMBL document CHEMBL2439978, “Perindopril and ramipril phosphonate analogues as a new class of angiotensin converting enzyme inhibitors” (Bioorg Med Chem, 2013).

How the values were obtained:
[1] = target: T1, Angiotensin-converting enzyme (Homo sapiens, UniProt P12821); assay: Inhibition of recombinant human ACE using (7-methoxycoumarin-4-yl)acetyl-Arg-Pro-Pro-Gly-Phe-Ser-Ala-Phe-Lys(2,4-dinitrophenyle)-OH as substrate after 30 mins by fluorescence assay
[2] = target: T1, Angiotensin-converting enzyme; assay: Inhibition of ACE (unknown origin)

T1 sequence (P12821 whole entry): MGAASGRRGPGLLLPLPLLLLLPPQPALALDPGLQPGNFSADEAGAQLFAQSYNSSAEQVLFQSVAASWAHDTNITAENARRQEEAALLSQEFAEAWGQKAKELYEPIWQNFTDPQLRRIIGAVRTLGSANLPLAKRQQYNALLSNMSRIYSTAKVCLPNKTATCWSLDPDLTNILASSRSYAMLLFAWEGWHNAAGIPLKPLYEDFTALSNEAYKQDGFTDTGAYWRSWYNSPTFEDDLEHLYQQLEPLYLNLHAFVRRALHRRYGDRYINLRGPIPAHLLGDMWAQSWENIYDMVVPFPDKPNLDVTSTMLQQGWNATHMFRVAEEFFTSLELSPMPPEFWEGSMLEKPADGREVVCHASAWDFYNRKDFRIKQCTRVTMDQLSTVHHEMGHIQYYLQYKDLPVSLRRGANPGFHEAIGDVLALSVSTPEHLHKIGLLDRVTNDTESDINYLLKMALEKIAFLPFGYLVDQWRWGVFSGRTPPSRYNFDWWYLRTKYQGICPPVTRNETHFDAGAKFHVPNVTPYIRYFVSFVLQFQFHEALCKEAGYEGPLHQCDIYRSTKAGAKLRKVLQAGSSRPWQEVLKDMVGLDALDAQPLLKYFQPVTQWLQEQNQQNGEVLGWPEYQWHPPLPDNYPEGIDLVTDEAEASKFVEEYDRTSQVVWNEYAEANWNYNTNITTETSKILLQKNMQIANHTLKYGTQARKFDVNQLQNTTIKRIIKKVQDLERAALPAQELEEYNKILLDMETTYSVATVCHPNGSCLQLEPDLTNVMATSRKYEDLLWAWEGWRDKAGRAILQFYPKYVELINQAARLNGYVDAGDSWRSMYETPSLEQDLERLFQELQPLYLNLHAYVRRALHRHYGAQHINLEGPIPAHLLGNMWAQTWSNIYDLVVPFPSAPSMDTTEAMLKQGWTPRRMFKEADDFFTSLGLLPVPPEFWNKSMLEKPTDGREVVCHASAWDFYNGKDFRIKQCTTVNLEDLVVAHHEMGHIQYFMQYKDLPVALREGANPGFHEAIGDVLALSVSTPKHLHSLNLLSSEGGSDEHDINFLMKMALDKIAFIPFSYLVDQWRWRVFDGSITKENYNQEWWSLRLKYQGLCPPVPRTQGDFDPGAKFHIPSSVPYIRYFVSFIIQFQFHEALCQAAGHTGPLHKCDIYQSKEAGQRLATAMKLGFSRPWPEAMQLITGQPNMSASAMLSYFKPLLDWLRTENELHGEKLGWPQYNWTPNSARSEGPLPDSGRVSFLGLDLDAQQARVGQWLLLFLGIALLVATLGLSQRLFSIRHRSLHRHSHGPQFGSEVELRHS

IC50 [1] [nM] | IC50 [2] [nM] | Compound
40 | – | C[C@H](NC(CCc1ccccc1)P(=O)(O)O)C(=O)N1[C@H](C(=O)O)C[C@@H]2CCCC[C@@H]21 (stereo partly drawn)
– | 1.5 | CCC[C@H](N[C@@H](C)C(=O)N1[C@H](C(=O)O)C[C@@H]2CCCC[C@@H]21)C(=O)OCC [PERINDOPRIL]
30 | – | CCCC(N[C@@H](C)C(=O)N1[C@H](C(=O)O)C[C@@H]2CCCC[C@@H]21)P(=O)(O)O (stereo partly drawn)
